Test results reported in patent US20210395327A1, “Growth Hormone-Releasing Hormone Antagonists and Uses Thereof” (United States Government As Represented By The Department …, priority 2019, published 2021).
Non-standard residues stand in square brackets, D forms with d. Residues, ends and D or L forms follow the SMILES beside them. *: point of attachment. Phenylacetyl(2,3,4,5,6-F5) = O=C(Cc1c(F)c(F)c(F)c(F)c1F)*; Phe(F5) = N[C@@H](Cc1c(F)c(F)c(F)c(F)c1F)C(=O)O; Phe(4-Cl) = N[C@@H](Cc1ccc(Cl)cc1)C(=O)O; hArg = N=C(N)NCCCC[C@H](N)C(=O)O; 12Ado = NCCCCCCCCCCCC(=O)O; Nle = CCCC[C@H](N)C(=O)O; Orn = NCCC[C@H](N)C(=O)O; Abu = CC[C@H](N)C(=O)O

Columns and labels:
[1] = test system: ovarian cancer SK-OV-3 xenograft; experiment: Xenograft tumor growth in nude mice, SK-OV-3; type: in vivo; conditions: Table 4L, Ovarian Ca SK-OV-3, 7 weeks; for % Inhibition: vs control
Procedure: (§1) The peptides' activity was compared with GHRH antagonist MIA-602. All statistical analyzses were performed from comparing GHRA antagonists to non-treated tumor (control).
(§2) Peptides and chemicals. GHRH antagonists MIA-602 and AVR-GHRH antagonists (see Table 2 above) were synthesized by solid phase methods and purified by HPLC. The peptides were dissolved in DMSO and further diluted in 10% 1,2-propanediol. The final concentration of peptides was 50 µg/ml in 10% 1,2-propanediol containing 0.1% of DMSO.
(§3) Cell culture. Human cancer cell lines including pancreatic (PANC-1 and CFPAC-1), lung (HCC827 and H460), stomach (NCI-N87), prostate (PC3), brest (MX-1 and HCC-1806), colorectal (HT-29), and ovarian (SK-OV-3 and OVCAR-3) were obtained from the American Type Culture Collection (ATCC) and cultured at 37° C. in a humidified 95% air/5% CO2 atmosphere in the medium recommended by ATCC.
(§4) Xenograft models of human cancers in nude mice. Female athymic (NCr nu/nu) nude mice, 5- to 6-weeks-old, obtained from the Envigo labs (Tampa, Fla.), were housed in laminar airflow cabinets under pathogen-free conditions with a 12-h light/12-h dark schedule, and were fed autoclaved standard chow and water. To generate mice with xenografted tumors, tumor xenografts were initiated by subcutaneous (s.c.) injection of 107 human cancer cells into female nude mice. After about 4 weeks the resulting tumors were dissected and collected after removing necrosis tissues. The tumors were then cut into particles with size of 3 mm3 and transplanted s.c. by trocar needle into experimental animals. When tumors grew to the size of 50-60 mm3 (by volume), mice were randomized into groups and treated daily for 4-8 weeks by subcutaneous administration of 5 μg of GHRH antagonists MIA-602 or AVR-compounds (2-10 μg as indicated), or vehicle solutions (0.1% DMSO in 10% 1,2-propanediol) respectively. Tumor sizes were measured weekly.
(§5) Statistical analysis. One-way ANOVA followed by Bonferroni comparison were performed. Data are expressed as Mean±SEM. To determine statistical significance between animal groups, two-tailed Student's t-test was conducted. Differences were considered significant when p<0.05.
(§6) Results. […] FIG. 1A-N represents in vivo inhibition of tumor growth during the treatment with GHRH antagonist MIA-602 and selected AVR antagonists in nude mice xenografted with various human tumors including pancreatic cancer PANC-1 (FIG. 1A) and CFPAC-1 (FIG. 1I); lung cancer HCC827 (FIGS. 1B, C) and H460 (FIG. 1H); stomach cancer N87 (FIGS. 1D-F); colon cancer HT-29 (FIG. 1G); breast cancer MX-1 and HCC-1806 (FIGS. 1J, K); ovarian cancer SK-OV-3 and OVACAR-3 (FIGS. 1 L, M) and prostate cancer PC3 (FIG. 1N). See also Table 5.

[2] = test system: NCI-N87 stomach cancer cells; experiment: In vitro cell viability (CellTiter 96), N87; type: cell-based, human; conditions: Table 3B; 5 μM for 72 H; MIA-602 = 1
Summary of the method: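 Cells grown to ~60% confluence, serum-starved 24 h in 0.5% FBS medium, then exposed to compounds at 5 μM (some at 2 μM) or 0.1% DMSO vehicle for 72 h, in quintuplicate, medium changed every 48 h. Viability read by MTS-type CellTiter 96 AQueous assay; values are inhibitory potency relative to MIA602.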

[3] = test system: HCC1806 breast cancer cells; experiment: In vitro cell viability, HCC1806; type: cell-based, human; conditions: Table 3B; 5 μM for 72 H; MIA-602 = 1
Procedure: The inhibitory effects of the various synthesized GHRH antagonists were tested in cell proliferation assays in various human cancer cell lines including stomach cancer (KATOIII, N87), colon cancer (HT-29), urothelial cancer (J82, RT4), pancreatic cancer (PANC-1, CFPAC-1), prostatic cancer (PC3), breast cancer (MX-1, HCC1806), ovarian cancer (SK-OV-3, OVCAR-3) and lung cancer (HCC827, H460).
as §3, with “(NCI-N87 and KATOIII), urothelial (J82, RT4), prostatic” for “(NCI-N87), prostate”, “breast” for “brest”, “HCC 1806),” for “HCC-1806),”
In vitro cell viability. Cell viability was analyzed as follows: cancer cells including pancreatic (PANC-1 and CFPAC-1), lung (HCC827 and H460), stomach (NCI-N87 and KATOIII), urothelial (J82, RT4), prostatic (PC3) and breast (MX-1 and HCC 1806), colorectal (HT-29) and ovarian (SK-OV-3 and OVCAR-3) were grown on 96 well plates to ˜60% confluence, the cells were starved for 24 h in culture medium containing 0.5% FBS. Cells were then treated with GHRH antagonists MIA602 AVR compounds at concentrations of 1, 2.5 or 5 μM, or vehicle (0.1% DMSO) in quintuplicates for 72 hours. The medium was replaced every 48 hours. Cell viability was measured using CellTiter 96 aqueous one solution kit (Promega). Inhibitory effects of tested AVR compounds in comparison to that of MIA602 are presented as inhibitory potency.
Inhibitory effects of selected AVR compounds in comparison to that of MIA602 are presented as inhibitory potency (e.g., percentage of inhibition). […] The cell lines tested including lung cancer HCC827 (FIG. 2A), pancreatic cancer CFPAC-1 (FIG. 2B), stomach cancer N87 (FIG. 2C), colon cancer HT-29 (FIG. 2D), breast cancers MX-1 and HCC1806 (FIGS. 2 E, F). Based on the results of cell proliferation assay after cancer cells were treated with antagonist at concentration of 5 μM for 72H, the relative inhibitory potency of AVR antagonists in comparison to MIA-602 is summarized in Table 3 A and B. Over 60 AVR compounds were tested in 12 cancer cell lines.
Based on the results of cell proliferation assay after cancer cells were treated with antagonist at concentration of 5 µM for 72H, * at concentration of 2 µM for 72 H.

[4] = test system: stomach cancer N87 xenograft; experiment: Xenograft tumor growth in nude mice, N87; type: in vivo; conditions: Table 4E, Stomach Ca N87, 4 weeks; for % Inhibition: vs control
Procedure: as §1, §2, §3
as §4, with “mice were randomized into groups and treated daily for 4-8 weeks by subcutaneous administration” left out
as §5, §6

SMILES: CCCC[C@H](NC(=O)[C@@H](NC(=O)[C@H](CC(=O)O)NC(=O)[C@H](CCC(N)=O)NC(=O)[C@H](CC(C)C)NC(=O)[C@H](CC(C)C)NC(=O)[C@H](CCCCN)NC(=O)[C@H](CCCNC(=N)N)NC(=O)[C@H](C)NC(=O)[C@H](CO)NC(=O)[C@H](CC(C)C)NC(=O)[C@H](CCC(N)=O)NC(=O)[C@H](CC)NC(=O)[C@H](CC(C)C)NC(=O)[C@@H](NC(=O)[C@H](CCCCN)NC(=O)[C@H](CCCNC(=N)N)NC(=O)[C@H](Cc1ccc(OC)cc1)NC(=O)[C@H](CCCCNC(=N)N)NC(=O)[C@H](C)NC(=O)[C@@H](NC(=O)[C@H](Cc1c(F)c(F)c(F)c(F)c1F)NC(=O)[C@@H](NC(=O)[C@H](C)NC(=O)[C@H](CC(=O)O)NC(=O)[C@@H](CCCNC(=N)N)NC(=O)[C@H](Cc1ccc(O)cc1)NC(=O)CCCCCCCCCCCNC(=O)Cc1c(F)c(F)c(F)c(F)c1F)[C@@H](C)CC)[C@@H](C)O)C(C)C)[C@@H](C)CC)C(=O)N[C@H](CCCNC(=N)N)C(=O)N[C@@H](CCCCNC(=N)N)C(=O)NCCCCCCCCCCCC(N)=O [AVR-352, 5FPhAC-Ada-Tyr-DArg-Asp-Ala-Ile-5FPhe-Thr-Ala-Har-Tyr(Me)-Arg-Lys-Val-Leu-Abu-Gln-Leu-Ser-Ala-Arg-Lys-Leu-Leu-Gln-Asp-Ile-Nle-DArg-Har-Ada-NH2] ({Phenylacetyl(2,3,4,5,6-F5)-12Ado}-Y[dR]DAI[Phe(F5)]TA[hArg]Y(Me)RKVL[Abu]QLSARKLLQDI[Nle][dR][hArg][12Ado]-NH2)
- Tumor Size (mm3) ([1]; 2.5 μg/day s.c.): 718.4 mm3
- % Inhibition ([1]; 2.5 μg/day s.c.): 45.0%
- Tumor Size (mm3) ([1]; 5 μg/day s.c.): 422.3 mm3
- % Inhibition ([1]; 5 μg/day s.c.): 67.7%
- In vitro relative inhibitory potency in comparison to MIA-602, NCI-N87 [2]: 1.809
- In vitro relative inhibitory potency in comparison to MIA-602, HCC-1806 [3]: 4.85

SMILES: CCCC[C@H](NC(=O)[C@@H](NC(=O)[C@H](CC(=O)O)NC(=O)[C@H](CCC(N)=O)NC(=O)[C@H](CC(C)C)NC(=O)[C@H](CC(C)C)NC(=O)[C@H](CCCCN)NC(=O)[C@H](CCCNC(=N)N)NC(=O)[C@H](C)NC(=O)[C@H](CO)NC(=O)[C@H](CC(C)C)NC(=O)[C@H](CCC(N)=O)NC(=O)[C@H](CC)NC(=O)[C@H](CC(C)C)NC(=O)[C@@H](NC(=O)[C@H](CCCCN)NC(=O)[C@H](CCCNC(=N)N)NC(=O)[C@H](Cc1c(F)c(F)c(F)c(F)c1F)NC(=O)[C@H](CCCCNC(=N)N)NC(=O)[C@H](C)NC(=O)[C@@H](NC(=O)[C@H](Cc1ccc(Cl)cc1)NC(=O)[C@@H](NC(=O)[C@H](C)NC(=O)[C@H](CC(=O)O)NC(=O)[C@@H](CCCNC(=N)N)NC(=O)[C@H](Cc1ccc(O)cc1)NC(=O)CCCCCCCCCCCNC(=O)Cc1c(F)c(F)c(F)c(F)c1F)[C@@H](C)CC)[C@@H](C)O)C(C)C)[C@@H](C)CC)C(=O)N[C@H](CCCNC(=N)N)C(=O)N[C@@H](CCCCNC(=N)N)C(=O)NCCCCCCCCCCCC(=O)NC [AVR-354] ({Phenylacetyl(2,3,4,5,6-F5)-12Ado}-Y[dR]DAI[Phe(4-Cl)]TA[hArg][Phe(F5)]RKVL[Abu]QLSARKLLQDI[Nle][dR][hArg][12Ado]-NHMe)
- In vitro relative inhibitory potency in comparison to MIA-602, HCC-1806 [3]: 3.991

SMILES: CCCC[C@H](NC(=O)[C@@H](NC(=O)[C@H](CC(=O)O)NC(=O)[C@H](CCC(N)=O)NC(=O)[C@H](CC(C)C)NC(=O)[C@H](CC(C)C)NC(=O)[C@H](CCCN)NC(=O)[C@H](Cc1c[nH]cn1)NC(=O)[C@H](C)NC(=O)[C@H](CO)NC(=O)[C@H](CC(C)C)NC(=O)[C@H](CCC(N)=O)NC(=O)[C@H](CC)NC(=O)[C@H](CC(C)C)NC(=O)[C@@H](NC(=O)[C@H](CCCN)NC(=O)[C@H](Cc1c[nH]cn1)NC(=O)[C@H](Cc1ccc(OC)cc1)NC(=O)[C@H](CCCCNC(=N)N)NC(=O)[C@H](C)NC(=O)[C@@H](NC(=O)[C@H](Cc1c(F)c(F)c(F)c(F)c1F)NC(=O)[C@@H](NC(=O)[C@H](C)NC(=O)[C@H](CC(=O)O)NC(=O)[C@@H](CCCNC(=N)N)NC(=O)[C@H](Cc1ccc(O)cc1)NC(=O)CCCCCCCCCCCNC(=O)Cc1c(F)c(F)c(F)c(F)c1F)[C@@H](C)CC)[C@@H](C)O)C(C)C)[C@@H](C)CC)C(=O)N[C@H](CCCNC(=N)N)C(=O)N[C@@H](CCCCNC(=N)N)C(=O)NCCCCCCCCCCCC(N)=O [AVR-553, 5FPhAC-Ada-Tyr-DArg-Asp-Ala-Ile-5FPhe-Thr-Ala-Har-Tyr(Me)-His-Orn-Val-Leu-Abu-Gln-Leu-Ser-Ala-His-Orn-Leu-Leu-Gln-Asp-Ile-Nle-DArg-Har-Ada-NH2] ({Phenylacetyl(2,3,4,5,6-F5)-12Ado}-Y[dR]DAI[Phe(F5)]TA[hArg]Y(Me)H[Orn]VL[Abu]QLSAH[Orn]LLQDI[Nle][dR][hArg][12Ado]-NH2)
- In vitro relative inhibitory potency in comparison to MIA-602, NCI-N87 [2]: 1.26
- Tumor Growth % ([4]; 2 μg/day s.c.): 532.7%
- % Inhibition ([4]; 2 μg/day s.c.): 40.3%
- Tumor Growth % ([4]; 5 μg/day s.c.): 283.3%
- % Inhibition ([4]; 5 μg/day s.c.): 68.3%
